Data published in patent publication US20260176320A1, “MODULATORS OF G-PROTEIN COUPLED RECEPTORS” (priority 2018, published 2026).
Where two headings read alike, the source gives them in different places.

Experiments:
GLP-1R [1] = target: T1, GLP-1R (Homo sapiens, UniProt P43220); experiment: PathHunter β-arrestin assay; assay type: cell-based; settings: PathHunter β-arrestin assay; read-out: β-arrestin activity EC50
How it was run: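 Overnight-plated cells; 0.2% BSA medium; agonist 22-pt 2× dilution series, duplicate; 90 min, 37 °C/5% CO2; detection reagent 3 h RT, dark; luminescence.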

GIP-R = target: T2, GIP-R (Homo sapiens, UniProt P48546); experiment: HitHunter cAMP assay (GIP-R); assay type: cell-based; settings: cAMP; for Emax: read-out: (Emax) GIP-R; for EC50: read-out: EC50 GIP-R/nM
T2 sequence (P48546 22-466): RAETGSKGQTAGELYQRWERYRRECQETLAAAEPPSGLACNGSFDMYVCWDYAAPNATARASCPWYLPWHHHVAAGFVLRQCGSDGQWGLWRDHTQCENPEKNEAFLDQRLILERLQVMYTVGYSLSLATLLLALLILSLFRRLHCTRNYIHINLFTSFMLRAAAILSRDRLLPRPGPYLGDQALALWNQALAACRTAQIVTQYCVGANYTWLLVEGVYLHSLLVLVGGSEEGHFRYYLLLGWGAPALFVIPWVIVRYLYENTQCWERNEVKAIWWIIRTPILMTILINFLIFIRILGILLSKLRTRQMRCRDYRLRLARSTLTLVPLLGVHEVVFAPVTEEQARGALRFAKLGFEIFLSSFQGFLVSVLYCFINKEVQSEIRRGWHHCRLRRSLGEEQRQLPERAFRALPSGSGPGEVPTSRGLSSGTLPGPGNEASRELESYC
How it was run: (§1)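 Luminescent readout of cAMP by enzyme-fragment immunocompetition gave agonist concentration-response data. Cells (10,000/well) sat in HBSS buffer containing IBMX 625 μM, HEPES 10 mM and BSA 0.2%, exposed to agonist for 30 min at room temperature.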

GLP-1R [2] = target: T1, GLP-1R; experiment: HitHunter cAMP assay (GLP-1R); assay type: cell-based; settings: cAMP; for Emax: read-out: (Emax) GLP-1R; for EC50: read-out: EC50 GLP-1R/nM
How it was run: as §1

mice = experiment: Glucose tolerance test (GTT); assay type: in vivo, mouse; settings: 24 h GTT, s.c., dose range 2-5 nmol/kg, percent of vehicle
How it was run: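 Compounds diluted in PBS from 1 mM DMSO stocks and given subcutaneously 15 min (5-6 h fast), 4 h (16 h overnight fast), 16 h or 24 h before intraperitoneal glucose (2 g/kg). Tail blood glucose read at 10–120 min post-glucose, at least 6 mice per time-point. Glucose AUC over time determined.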

T1 sequence (P43220 24-463): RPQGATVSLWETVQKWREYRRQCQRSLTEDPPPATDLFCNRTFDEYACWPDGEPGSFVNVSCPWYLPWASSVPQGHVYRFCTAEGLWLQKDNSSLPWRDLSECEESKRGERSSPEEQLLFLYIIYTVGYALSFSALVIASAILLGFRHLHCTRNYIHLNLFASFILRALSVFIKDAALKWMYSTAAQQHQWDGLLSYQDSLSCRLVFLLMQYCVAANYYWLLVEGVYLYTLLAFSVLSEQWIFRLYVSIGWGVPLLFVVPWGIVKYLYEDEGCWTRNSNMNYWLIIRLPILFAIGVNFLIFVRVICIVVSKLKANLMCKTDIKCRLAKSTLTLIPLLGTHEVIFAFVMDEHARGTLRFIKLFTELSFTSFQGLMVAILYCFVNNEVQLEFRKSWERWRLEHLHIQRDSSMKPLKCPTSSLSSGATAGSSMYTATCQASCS

SMILES | EC50 (GLP-1R [1]) | Emax (GIP-R; Table 3) | EC50 (GIP-R; Table 3) | Emax (GIP-R; Table 3A) | EC50 (GIP-R; Table 3A) | Emax (GLP-1R [2]; Table 3) | EC50 (GLP-1R [2]; Table 3) | Emax (GLP-1R [2]; Table 3A) | EC50 (GLP-1R [2]; Table 3A) | AUC score (mice)
CCCCCCCCCCCCCCCC(=O)N[C@@H](CCC(=O)NCCCC[C@H](NC(=O)[C@H](CO)NC(=O)[C@@H]1CCCN1C(=O)[C@@H]1CCCN1C(=O)[C@@H]1CCCN1C(=O)[C@H](C)NC(=O)CNC(=O)[C@H](CO)NC(=O)[C@H](CO)NC(=O)[C@@H]1CCCN1C(=O)CNC(=O)CNC(=O)[C@H](C)NC(=O)[C@H](CC(C)C)NC(=O)[C@H](CC(C)C)NC(=O)[C@H](Cc1c[nH]c2ccccc12)NC(=O)[C@H](CC(N)=O)NC(=O)[C@@H](NC(=O)[C@H](Cc1ccccc1)NC(=O)[C@H](CCC(=O)O)NC(=O)C(C)(C)NC(=O)[C@H](C)NC(=O)[C@H](C)NC(=O)[C@H](CCC(N)=O)NC(=O)[C@H](CCCCN)NC(=O)[C@H](CC(=O)O)NC(=O)[C@H](CC(C)C)NC(=O)[C@H](Cc1ccc(O)cc1)NC(=O)[C@@H](NC(=O)[C@H](CO)NC(=O)[C@H](Cc1ccc(O)cc1)NC(=O)[C@H](CC(=O)O)NC(=O)[C@H](CO)NC(=O)[C@@H](NC(=O)[C@H](Cc1ccccc1)NC(=O)[C@@H](NC(=O)CNC(=O)[C@H](CCC(=O)O)NC(=O)CSCC(=O)NCCN1CCCC1=O)[C@@H](C)O)[C@@H](C)O)[C@@H](C)CC)C(C)C)C(N)=O)C(=O)O [Compound 83] | > 1000 nM | 73% | 1 to 10 nM | 73% | 1 to 10 nM | 106% | 0.1 to 1 nM | 106% | 0.1 to 1 nM | 2 (AUC score 2 = 26-50%)
CCCCCCCCCCCCCCCC(=O)N[C@@H](CCC(=O)NCCCC[C@H](NC(=O)[C@H](CO)NC(=O)[C@@H]1CCCN1C(=O)[C@@H]1CCCN1C(=O)[C@@H]1CCCN1C(=O)[C@H](C)NC(=O)CNC(=O)[C@H](CO)NC(=O)[C@H](CO)NC(=O)[C@@H]1CCCN1C(=O)CNC(=O)CNC(=O)[C@H](C)NC(=O)[C@H](CC(C)C)NC(=O)[C@H](CC(C)C)NC(=O)[C@H](Cc1c[nH]c2ccccc12)NC(=O)[C@H](CC(N)=O)NC(=O)[C@@H](NC(=O)[C@H](Cc1ccccc1)NC(=O)[C@H](CCC(=O)O)NC(=O)C(C)(C)NC(=O)[C@H](C)NC(=O)[C@H](C)NC(=O)[C@H](CCC(N)=O)NC(=O)[C@H](CCCCN)NC(=O)[C@H](CC(=O)O)NC(=O)[C@H](CC(C)C)NC(=O)[C@H](Cc1ccc(O)cc1)NC(=O)[C@@H](NC(=O)[C@H](CO)NC(=O)[C@H](Cc1ccc(O)cc1)NC(=O)[C@H](CC(=O)O)NC(=O)[C@H](CO)NC(=O)[C@@H](NC(=O)[C@H](Cc1ccccc1)NC(=O)[C@@H](NC(=O)CNC(=O)[C@H](CCC(=O)O)NC(=O)CNC(=O)CCN1CCCCC1=O)[C@@H](C)O)[C@@H](C)O)[C@@H](C)CC)C(C)C)C(N)=O)C(=O)O [Compound 1] | > 1000 nM | 23% | 1 to 10 nM | 23% | 10 to 100 nM | 97% | 0.1 to 1 nM | 97% | 0.1 to 1 nM | 3 (AUC score 3 = 51-75%)
CCCCCCCCCCCCCCCC(=O)N[C@@H](CCC(=O)NCCCC[C@H](NC(=O)[C@H](CO)NC(=O)[C@@H]1CCCN1C(=O)[C@@H]1CCCN1C(=O)[C@@H]1CCCN1C(=O)[C@H](C)NC(=O)CNC(=O)[C@H](CO)NC(=O)[C@H](CO)NC(=O)[C@@H]1CCCN1C(=O)CNC(=O)CNC(=O)[C@H](C)NC(=O)[C@H](CC(C)C)NC(=O)[C@H](CC(C)C)NC(=O)[C@H](Cc1c[nH]c2ccccc12)NC(=O)[C@H](CC(N)=O)NC(=O)[C@@H](NC(=O)[C@H](Cc1ccccc1)NC(=O)[C@H](CCC(=O)O)NC(=O)C(C)(C)NC(=O)[C@H](C)NC(=O)[C@H](C)NC(=O)[C@H](CCC(N)=O)NC(=O)[C@H](CCCCN)NC(=O)[C@H](CC(=O)O)NC(=O)[C@H](CC(C)C)NC(=O)[C@H](Cc1ccc(O)cc1)NC(=O)[C@@H](NC(=O)[C@H](CO)NC(=O)[C@H](Cc1ccc(O)cc1)NC(=O)[C@H](CC(=O)O)NC(=O)[C@H](CO)NC(=O)[C@@H](NC(=O)[C@H](Cc1ccccc1)NC(=O)[C@@H](NC(=O)CNC(=O)[C@H](CCC(=O)O)NC(=O)C(C)(C)CC(=O)NCCN1CCCCC1=O)[C@@H](C)O)[C@@H](C)O)[C@@H](C)CC)C(C)C)C(N)=O)C(=O)O [Compound 18] | < 10 nM | 80% | 0.1 to 1 nM | 80% | 0.1 to 1 nM | 101% | < 0.1 nM | 101% | < 0.1 nM | 2 (AUC score 2 = 26-50%)
CCCCCCCCCCCCCCCC(=O)N[C@@H](CCC(=O)NCCCC[C@H](NC(=O)[C@H](CO)NC(=O)[C@@H]1CCCN1C(=O)[C@@H]1CCCN1C(=O)[C@@H]1CCCN1C(=O)[C@H](C)NC(=O)CNC(=O)[C@H](CO)NC(=O)[C@H](CO)NC(=O)[C@@H]1CCCN1C(=O)CNC(=O)CNC(=O)[C@H](C)NC(=O)[C@H](CC(C)C)NC(=O)[C@H](CC(C)C)NC(=O)[C@H](Cc1c[nH]c2ccccc12)NC(=O)[C@H](CC(N)=O)NC(=O)[C@@H](NC(=O)[C@H](Cc1ccccc1)NC(=O)[C@H](CCC(=O)O)NC(=O)C(C)(C)NC(=O)[C@H](C)NC(=O)[C@H](C)NC(=O)[C@H](CCC(N)=O)NC(=O)[C@H](CCCCN)NC(=O)[C@H](CC(=O)O)NC(=O)[C@H](CC(C)C)NC(=O)[C@H](Cc1ccc(O)cc1)NC(=O)[C@@H](NC(=O)[C@H](CO)NC(=O)[C@H](Cc1ccc(O)cc1)NC(=O)[C@H](CC(=O)O)NC(=O)[C@H](CO)NC(=O)[C@@H](NC(=O)[C@H](Cc1ccccc1)NC(=O)[C@@H](NC(=O)CNC(=O)[C@H](CCC(=O)O)NC(=O)CCNC(=O)Cn1ccccc1=O)[C@@H](C)O)[C@@H](C)O)[C@@H](C)CC)C(C)C)C(N)=O)C(=O)O [Compound 234] | > 1000 nM | – | – | 76% | 1 to 10 nM | – | – | 97% | 0.1 to 1 nM | 3 (AUC score 3 = 51-75%)
CCCCCCCCCCCCCCCC(=O)N[C@@H](CCC(=O)NCCCC[C@H](NC(=O)[C@H](CO)NC(=O)[C@@H]1CCCN1C(=O)[C@@H]1CCCN1C(=O)[C@@H]1CCCN1C(=O)[C@H](C)NC(=O)CNC(=O)[C@H](CO)NC(=O)[C@H](CO)NC(=O)[C@@H]1CCCN1C(=O)CNC(=O)CNC(=O)[C@H](C)NC(=O)[C@H](CC(C)C)NC(=O)[C@H](CC(C)C)NC(=O)[C@H](Cc1c[nH]c2ccccc12)NC(=O)[C@H](CC(N)=O)NC(=O)[C@@H](NC(=O)[C@H](Cc1ccccc1)NC(=O)[C@H](CCC(=O)O)NC(=O)C(C)(C)NC(=O)[C@H](C)NC(=O)[C@H](C)NC(=O)[C@H](CCC(N)=O)NC(=O)[C@H](CCCCN)NC(=O)[C@H](CC(=O)O)NC(=O)[C@H](CC(C)C)NC(=O)[C@H](Cc1ccc(O)cc1)NC(=O)[C@@H](NC(=O)[C@H](CO)NC(=O)[C@H](Cc1ccc(O)cc1)NC(=O)[C@H](CC(=O)O)NC(=O)[C@H](CO)NC(=O)[C@@H](NC(=O)[C@H](Cc1ccccc1)NC(=O)[C@@H](NC(=O)CNC(=O)[C@H](CCC(=O)O)NC(=O)CSCC(=O)NCCN1CCOCC1=O)[C@@H](C)O)[C@@H](C)O)[C@@H](C)CC)C(C)C)C(N)=O)C(=O)O [Compound 32] | > 1000 nM | 65% | 1 to 10 nM | 65% | 1 to 10 nM | 103% | < 0.1 nM | 103% | < 0.1 nM | 2 (AUC score 2 = 26-50%)
